Assay results: patent US8168651B2, “Protein kinase modulators” (Cylene Pharmaceuticals, Inc., priority 2008, dated 2012)
Like-named read-outs stand apart in the source and are kept apart here.

Columns and labels:
PIM2 = PIM2 (Homo sapiens (Human), UniProt Q9P1W9); experiment: PIM2 IC50; assay type: biochemical; details: Table 45
recombinant human PIM1 = recombinant human PIM1 (Homo sapiens (Human), UniProt P11309); experiment: PIM-1 kinase activity in cell-free in vitro assay; assay type: biochemical; details: for inhibition at 0.5 µM: 500 nM compound, read-out: PIM-1: % inh 500 nM
MV-4-11 [1] = experiment: Cell proliferation modulatory activity, MV-4-11; assay type: cell-based; details: Homo sapiens, MV4-11
recombinant human CK2 = recombinant human CK2 (Homo sapiens (Human), UniProt P68400); experiment: CK2 assay (cell-free, 33P-ATP filter plate); assay type: biochemical; details: cell-free assay; for inhibition at 0.5 µM: 500 nM compound, read-out: CK2: % inh 500 nM
K-562 [2] = experiment: Cell proliferation modulatory activity, K-562; assay type: cell-based; details: Homo sapiens, K562
[3] = test system: HCT-116 human colorectal carcinoma cells; experiment: Cell-proliferation assay using Alamar Blue dye; assay type: cell-based; details: Homo sapiens;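 also: cells exposed to compound for about 4 days, then Alamar Blue added and dye fluorescence read after about 4 h, compared with medium-only control wells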
Jurkat = experiment: Cell proliferation modulatory activity, Jurkat; assay type: cell-based; details: Homo sapiens
K-562 [4] = experiment: Cell proliferation modulatory activity, K-562; assay type: cell-based; details: Homo sapiens, K562; K-562 cells; read-out: K-562 (uM), cell proliferation modulatory activity
MV-4-11 [5] = experiment: Cell proliferation modulatory activity, MV-4-11; assay type: cell-based; details: Homo sapiens, MV4-11; MV-4-11 cells; read-out: MV-4-11 (uM), cell proliferation modulatory activity
[6] = HCT-116, HCT-116, second HCT-116 column (c8), read-out: HCT-116 (uM), cell proliferation modulatory activity
[7] = HCT-116, read-out: HCT-116 (uM), cell proliferation modulatory activity, HCT-116, second HCT-116 column (c8)
[8] = HCT-116, second of two HCT-116 columns (c8), read-out: HCT-116 (uM), cell proliferation modulatory activity

PIM2, sequence (Q9P1W9 whole entry): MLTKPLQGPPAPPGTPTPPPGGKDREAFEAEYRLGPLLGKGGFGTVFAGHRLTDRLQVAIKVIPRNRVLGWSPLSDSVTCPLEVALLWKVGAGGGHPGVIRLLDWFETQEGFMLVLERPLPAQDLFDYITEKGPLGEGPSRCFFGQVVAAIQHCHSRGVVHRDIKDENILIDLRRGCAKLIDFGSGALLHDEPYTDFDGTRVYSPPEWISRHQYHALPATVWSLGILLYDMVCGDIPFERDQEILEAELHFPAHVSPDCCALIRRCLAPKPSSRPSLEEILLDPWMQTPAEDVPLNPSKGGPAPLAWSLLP
recombinant human PIM1, sequence (P11309 whole entry): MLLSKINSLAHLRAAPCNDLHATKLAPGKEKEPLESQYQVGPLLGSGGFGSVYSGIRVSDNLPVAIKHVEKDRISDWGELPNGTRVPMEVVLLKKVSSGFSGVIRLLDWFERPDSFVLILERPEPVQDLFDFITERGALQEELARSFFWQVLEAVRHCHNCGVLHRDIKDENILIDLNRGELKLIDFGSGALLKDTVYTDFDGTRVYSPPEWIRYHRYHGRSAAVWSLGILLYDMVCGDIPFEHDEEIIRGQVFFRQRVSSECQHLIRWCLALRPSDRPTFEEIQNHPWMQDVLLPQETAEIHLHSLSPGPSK
recombinant human CK2, sequence (P68400 whole entry): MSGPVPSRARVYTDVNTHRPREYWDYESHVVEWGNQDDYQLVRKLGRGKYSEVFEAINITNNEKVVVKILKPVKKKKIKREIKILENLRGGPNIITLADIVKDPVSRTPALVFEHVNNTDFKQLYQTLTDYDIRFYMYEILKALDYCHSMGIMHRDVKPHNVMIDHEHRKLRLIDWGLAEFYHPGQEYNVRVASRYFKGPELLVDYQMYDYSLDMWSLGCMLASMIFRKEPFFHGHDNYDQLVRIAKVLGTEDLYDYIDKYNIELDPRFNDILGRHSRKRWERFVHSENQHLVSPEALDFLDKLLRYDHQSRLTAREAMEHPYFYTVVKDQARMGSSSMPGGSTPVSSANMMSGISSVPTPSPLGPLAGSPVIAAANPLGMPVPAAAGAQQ
recombinant human CK2, sequence (P67870 whole entry partner): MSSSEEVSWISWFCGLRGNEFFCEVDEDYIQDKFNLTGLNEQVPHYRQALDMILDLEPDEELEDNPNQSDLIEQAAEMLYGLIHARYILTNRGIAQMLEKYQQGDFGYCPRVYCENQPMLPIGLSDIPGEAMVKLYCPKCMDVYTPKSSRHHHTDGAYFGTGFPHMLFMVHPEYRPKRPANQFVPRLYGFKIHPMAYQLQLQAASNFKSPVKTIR

Row | SMILES | IC50 (PIM2) | IC50 (recombinant human PIM1; Table 45) | IC50 (MV-4-11 [1]) | inhibition at 0.5 µM (recombinant human PIM1; cell-free assay) | IC50 (K-562 [2]) | IC50 [3, 6] | IC50 (Jurkat) | further results
1 | C#Cc1cccc(Nc2nc3cc(C(=O)O)ccc3c3cnc(NCCOCC)nc23)c1 | – | – | 0.141 µM | 12.1% | > 10 µM | – | 1.13 µM | –
2 | C#Cc1cccc(Nc2nc3cc(C(=O)N(C)C)ccc3c3cncnc23)c1 | – | – | 4.62 µM | -27.8% | 9.79 µM | 0.545 µM | 1.18 µM | –
3 | O=C(O)c1ccc2c(c1)nc(Nc1ccccc1)c1nc(NCCN3CCOCC3)ncc12 | – | – | 0.358 µM | 30.6% | 1.16 µM | – | 5.7 µM | –
4 | O=C(O)c1ccc2c(c1)nc(Nc1ccc(Cl)c(C(F)(F)F)c1)c1ccncc12 | – | – | > 10 µM | 73.6% | > 10 µM | – | 3.05 µM | IC50 (recombinant human PIM1; cell-free assay): 408 nM; IC50 [3, 7]: 3.99 µM
5 | O=C(O)c1ccc2c(c1)nc(Nc1ccccc1)c1nc(NC3CC3)ncc12 | – | – | 0.195 µM | 18.4% | 0.494 µM | – | 2.42 µM | IC50 [3, 7]: 1.94 µM
6 | Cc1cccc(N2CCN(c3nc4cc(C(=O)O)ccc4c4cnccc34)CC2)c1 | – | – | – | 33.7% | > 10 µM | > 10 µM | – | –
7 | C#Cc1cccc(Nc2nc3cc(C(=O)O)ccc3c3cnc(NCC4CCCO4)nc23)c1 (centres unmarked) [drawing 1605] | – | – | 0.284 µM | 1.48% | > 10 µM | – | 2.04 µM | IC50 [3, 7]: > 10 µM
8 | c1cc(-c2nc[nH]n2)c2nc(NCc3ccncc3)c3ccncc3c2c1 | < 1000 nM | < 500 nM | – | – | – | – | – | –
9 | Cc1ccccc1Nc1nc2cc(C(=O)O)ccc2c2cnccc12 | – | – | 0.985 µM | 92.3% | > 10 µM | > 10 µM | 15.7 µM | IC50 (recombinant human PIM1; cell-free assay): 158 nM
10 | Cc1cccc(Nc2nc3cc(C(=O)O)ccc3c3cnccc23)c1 | – | – | 0.593 µM | 86.7% | > 10 µM | – | 3.45 µM | IC50 (recombinant human PIM1; cell-free assay): 177 nM
11 | O=C(O)c1ccc2c(c1)nc(NCc1cccc3ccccc13)c1ccncc12 | – | – | – | 15.6% | > 10 µM | > 10 µM | – | –
12 | Fc1cc(Cl)cc(Nc2nc3cc(-c4nnn[nH]4)ccc3c3ccsc23)c1 | – | – | – | 22.9% | – | – | – | inhibition at 0.5 µM (recombinant human CK2): 45.4%; IC50 (K-562 [4]): > 10 µM; IC50 [3, 8]: > 10 µM
13 | O=C(O)c1cc(F)cc2c1nc(Nc1cccc(Cl)c1)c1ccncc12 | > 1100 nM | > 1100 nM | – | – | – | – | – | –
14 | c1ccc(CNc2nc3c(-c4nc[nH]n4)cccc3c3cnccc23)nc1 | < 500 nM | < 500 nM | – | – | – | – | – | –
15 | O=C(O)c1ccc2c(c1)nc(NC1CC1)c1nc(Nc3ccc(F)cc3F)ncc12 | – | – | 2.29 µM | – | > 10 µM | > 10 µM | – | –
16 | O=C(O)c1ccc2c(c1)nc(NC1CC1)c1nc(Nc3ccc(F)c(F)c3)ncc12 | – | – | 1.86 µM | 14.1% | > 10 µM | > 10 µM | – | inhibition at 0.5 µM (recombinant human CK2): 96.3%
17 | CN1CCN(c2nc3c(-c4nc[nH]n4)cccc3c3cnccc23)CC1 | > 1100 nM | < 1000 nM | – | – | – | – | – | –
18 | O=C(O)c1cc(F)cc2c1nc(Nc1cccc(Cl)c1)c1cnccc12 | > 1100 nM | > 1100 nM | – | – | – | – | – | –

The next lines start with results.

Row | IC50 (PIM2) | IC50 (recombinant human PIM1; Table 45) | IC50 (MV-4-11 [1]) | inhibition at 0.5 µM (recombinant human PIM1; cell-free assay) | IC50 (K-562 [2]) | IC50 [3, 6] | IC50 (Jurkat) | SMILES | further results
19 | > 1100 nM | > 1100 nM | – | – | – | – | – | CCN1CCCC1CNc1nc2c(-c3nc[nH]n3)cccc2c2cnccc12 (centres unmarked) | –
20 | – | – | > 10 µM | 9.85% | > 10 µM | > 10 µM | – | COc1ccc(CCNc2nc3cc(C(=O)O)ccc3c3cnccc23)cc1OC | inhibition at 0.5 µM (recombinant human CK2): 99%
21 | – | – | 0.655 µM | 18.6% | > 10 µM | – | 1.24 µM | CNc1ncc2c(n1)c(Nc1ccc(F)c(Cl)c1)nc1cc(C(=O)O)ccc12 | –
22 | – | – | > 10 µM | 45.6% | > 10 µM | – | – | O=C(O)c1ccc2c(c1)nc(Nc1ccccc1)c1nc(NCCO)ncc12 | –
23 | > 1100 nM | < 5000 nM | – | – | – | – | – | c1cc(-c2nc[nH]n2)c2nc(NCCN3CCOCC3)c3ccncc3c2c1 | –
24 | – | – | – | 2.81% | 1.34 µM | > 10 µM | – | COC(=O)c1ccc2c(c1)nc(NC1CC1)c1nc(C#N)ncc12 | –
25 | – | – | > 10 µM | 14.3% | > 10 µM | > 10 µM | – | O=C(O)c1ccc2c(c1)nc(NCc1ccccn1)c1ccncc12 | inhibition at 0.5 µM (recombinant human CK2): 96.6%
26 | > 1100 nM | < 1000 nM | – | – | – | – | – | NC(=O)c1cc(F)cc2c1nc(Nc1cccc(Cl)c1)c1ccncc12 | –
27 | > 1100 nM | < 500 nM | – | – | – | – | – | CN1CCC(CNc2nc3c(-c4nnc[nH]4)cccc3c3cnccc23)CC1 | –
28 | < 1000 nM | < 1000 nM | – | – | – | – | – | Fc1cc(-c2nnc[nH]2)c2nc(Nc3cccc(Cl)c3)c3ccncc3c2c1 [drawing 2259] | –
29 | – | – | > 10 µM | -8.95% | > 10 µM | > 10 µM | – | O=C(O)c1ccc2c(c1)nc(NCCc1ccccn1)c1ccncc12 | inhibition at 0.5 µM (recombinant human CK2): 96.1%
30 | – | – | > 10 µM | 37.3% | > 10 µM | > 10 µM | – | Cc1cnc(CNC(=O)c2ccc3c(c2)nc(N2CCN(C)CC2)c2ccsc23)cn1 | inhibition at 0.5 µM (recombinant human CK2): -15%
31 | – | – | > 10 µM | 20.7% | > 10 µM | > 10 µM | – | O=C(O)c1ccc2c(c1)nc(N1CCC(N3CCOCC3)CC1)c1ccncc12 | inhibition at 0.5 µM (recombinant human CK2): 90.5%; IC50 (recombinant human PIM1; cell-free assay): 310 nM
32 | – | – | 0.128 µM | 3.08% | 0.25 µM | – | 0.424 µM | C#Cc1cccc(Nc2nc3cc(C(=O)O)ccc3c3cnc(NCC4CC4)nc23)c1 [drawing 1606] | IC50 [3, 7]: > 10 µM
33 | > 1100 nM | < 5000 nM | – | – | – | – | – | CN(C)CCNc1nc2c(-c3nc[nH]n3)cccc2c2cnccc12 | –
34 | – | – | 0.237 µM | 29% | > 10 µM | – | – | C#Cc1cccc(Nc2nc3cc(C(=O)O)ccc3c3cnc(NC4CCNCC4)nc23)c1 | –
35 | – | – | > 10 µM | 6.63% | > 10 µM | – | 1.54 µM | O=C(O)c1ccc2c(c1)nc(Nc1ccc(F)c(Cl)c1)c1nc(NC3CC3)ncc12 | –
36 | – | – | 0.257 µM | – | 0.158 µM | – | 1.29 µM | O=C(O)c1ccc2c(c1)nc(Nc1cccc(Cl)c1)c1nc(NC3CC3)ncc12 | IC50 [3, 7]: 7.82 µM
37 | – | – | – | 40.4% | – | – | – | Clc1ccc(Nc2nc3cc(-c4nnn[nH]4)ccc3c3ccsc23)cc1 | inhibition at 0.5 µM (recombinant human CK2): 23.9%; IC50 (K-562 [4]): > 10 µM; IC50 (MV-4-11 [5]): > 10 µM; IC50 [3, 8]: > 10 µM
38 | – | – | – | 54.7% | – | – | – | Fc1ccc(Nc2nc3cc(-c4nnn[nH]4)ccc3c3ccsc23)cc1 | inhibition at 0.5 µM (recombinant human CK2): 30.3%; IC50 (K-562 [4]): > 10 µM; IC50 (MV-4-11 [5]): > 10 µM; IC50 (recombinant human PIM1; cell-free assay): 738 nM; IC50 [3, 8]: > 10 µM
39 | > 1100 nM | < 500 nM | – | – | – | – | – | c1cncc(CNc2nc3c(-c4nc[nH]n4)cccc3c3cnccc23)c1 | –
40 | – | – | – | 29.1% | – | – | – | Fc1ccc(Nc2nc3cc(-c4nnn[nH]4)ccc3c3ccsc23)cc1Cl | inhibition at 0.5 µM (recombinant human CK2): 37.6%; IC50 (K-562 [4]): > 10 µM; IC50 (MV-4-11 [5]): 0.721 µM; IC50 [3, 8]: > 10 µM
41 | – | – | – | 10.8% | – | – | – | FC(F)(F)c1cccc(Nc2nc3cc(-c4nnn[nH]4)ccc3c3ccsc23)c1 | inhibition at 0.5 µM (recombinant human CK2): 17.4%; IC50 (K-562 [4]): > 10 µM; IC50 (MV-4-11 [5]): 1.1 µM; IC50 [3, 8]: > 10 µM
42 | – | – | – | -40.2% | – | > 10 µM | 16.6 µM | CC(C)OCCCNc1ncc2c(n1)c(NC1CC1)nc1cc(C(=O)O)ccc12 | IC50 (recombinant human CK2; 15 um ATP, read-out: CK2 (15 um ATP) IC50): 74 nM
43 | > 1100 nM | > 1100 nM | – | – | – | – | – | Fc1cc(-c2nnc[nH]2)c2nc(Nc3cccc(Cl)c3)c3ccncc3c2c1 [drawing 2269] | –
